{
  "source": "paper PMC7497403",
  "about": "“Development of Potent PfCLK3 Inhibitors Based on TCMDC-135051 as a New Class of Antimalarials” (Journal of Medicinal Chemistry, 2020)",
  "key": {"[1]": {"target": "T1, full-length PfCLK3 recombinant protein (Plasmodium falciparum, UniProt Q8IIL5)", "T1 sequence (Q8IIL5 1-699)": "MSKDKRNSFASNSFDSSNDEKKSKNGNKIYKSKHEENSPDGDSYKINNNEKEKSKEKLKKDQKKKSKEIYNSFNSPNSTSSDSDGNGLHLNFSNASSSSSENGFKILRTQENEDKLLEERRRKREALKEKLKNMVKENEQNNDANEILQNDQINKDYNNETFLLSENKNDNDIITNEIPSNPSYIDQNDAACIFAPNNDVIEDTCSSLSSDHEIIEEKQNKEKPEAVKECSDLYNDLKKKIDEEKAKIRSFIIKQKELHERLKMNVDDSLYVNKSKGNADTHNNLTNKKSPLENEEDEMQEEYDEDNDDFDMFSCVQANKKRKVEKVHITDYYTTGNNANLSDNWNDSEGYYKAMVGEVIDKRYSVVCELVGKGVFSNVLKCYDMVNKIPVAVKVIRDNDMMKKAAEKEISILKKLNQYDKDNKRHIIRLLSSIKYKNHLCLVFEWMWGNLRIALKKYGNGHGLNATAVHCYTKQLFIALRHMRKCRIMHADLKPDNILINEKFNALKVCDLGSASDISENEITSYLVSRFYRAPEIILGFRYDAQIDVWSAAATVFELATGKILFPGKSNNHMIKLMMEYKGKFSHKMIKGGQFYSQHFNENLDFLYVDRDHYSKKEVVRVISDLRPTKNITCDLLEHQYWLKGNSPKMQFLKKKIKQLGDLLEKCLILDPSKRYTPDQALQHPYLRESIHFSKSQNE", "test": "TR-FRET PfCLK3 in vitro kinase assay", "type": "biochemical, P. falciparum", "settings": "for IC50: TR-FRET, full-length recombinant PfCLK3, ± SEM, n = 3, read-out: PfCLK3 pIC50 (converted)", "experimental": "First, in a 10 μL reaction volume, 5 μL of twice the required enzyme concentration (50 nM) and 2.5 μL of four times the required substrate concentration mix containing cold ATP, and the serially diluted drugs were mixed in a black 384-plate well plate and incubated at 37 °C for 1 h. The reaction was stopped after incubation by adding the stopping/detection solution (containing 30 mM EDTA in 1× Lance detection buffer and 3 nM Europium-labeled antiphospho-specific antibody) and incubated for another hour at RT before phosphorylation signals were measured using the ClarioStar.\nFor each test compound, percent inhibition (response) which was calculated using the formula: [drawing 3] was plotted against the log molar concentration of compound to calculate the IC50 (potency) of each inhibitor molecule and plotted using GraphPad prism software. All experiments were carried out in triplicates, and the data presented were the standard error of the mean (SEM) of three independent experiments run in triplicates.\nPfCLK3 phosphorylation of substrate results in the Europium-labeled antiphospho-specific antibody recognizing the phosphorylated site on the substrate. The Europium donor fluorophore is excited at 320 or 340 nm, and energy is transferred to the ULight acceptor dye on the substrate, which finally results in the emission of light at 665 nm. The level of ULight peptide phosphorylation correlates with the intensity of the emission. For normalization, a no kinase and a no inhibitor reaction wells were included, and all experiments were conducted in triplicates. Drug dilutions, protein concentrations, and incubation times were the same for easy comparison of results."}, "P. falciparum 3D7": {"test_system": "P. falciparum 3D7", "test": "Parasite growth inhibition (Sybr Green I) in 3D7 parasites", "type": "cell-based", "settings": "for fold decrease in parasite growth inhibition: 3D7 parasites, relative to TCMDC-135051 (1); for EC50: Plasmodium falciparum, asexual 3D7 (chloroquine-sensitive) P. falciparum, ± SEM, n = 3, read-out: 3D7 pEC50 (converted); for 3D7 ED50: Table 2, asexual 3D7 P. falciparum"}, "Microsomal stability": {"test": "Microsomal stability", "type": "in vitro ADME", "settings": "mouse liver microsomes; 1 μM compound", "experimental": "Compounds were incubated at 37 °C at a concentration of 1 μM with CD1 mouse liver microsomes (GIBCO, Thermo Fisher Scientific) in a suspension of 50 mM potassium phosphate buffer (pH 7.4) with a final protein concentration of 0.5 mg/mL. The reaction was started by the addition of excess NADPH and then quenched at several time points starting from time 0, then at 3, 6, 9, 15, and 30 min addition of acetonitrile to an aliquot of the sample. An internal standard was added to each sample before centrifugation to remove any precipitates before monitoring loss of parent compound by HPLC analysis using Shimadzu LC-20A (Shimadzu, UK). Prism (Graphpad, USA) was used to fit an exponential decay for substrate depletion and subsequently rate constant (k) from the peak area of the parent compound to the internal standard at each time point."}, "[2]": {"test_system": "P. falciparum clinical field isolates from The Gambia", "test": "Parasite reduction rate (PRR) assay with clinical isolates", "type": "cell-based", "settings": "all isolates except GB0020, GB002 and GB0026; at EC50 concentration (18 nM)"}},
  "data": [
    {"molecule": "COc1ccc(CN(C)C)cc1-c1cc2c(-c3ccc(C(=O)O)c(C(C)C)c3)ccnc2[nH]1", "note": "[analogue 8a, 4-(2-{5-[(Dimethylamino)methyl]-2-methoxyphenyl}-1H-pyrrolo[2,3-b]pyridin-4-yl)-2-(propan-2-yl)benzoic Acid]", "values": [
      {"measurement": "IC50", "setting": "[1]", "result": 31.6, "unit": "nM"},
      {"measurement": "fold decrease in parasite growth inhibition", "setting": "P. falciparum 3D7", "result": 2, "unit": "fold"},
      {"measurement": "EC50", "setting": "P. falciparum 3D7", "result": 501, "unit": "nM"},
      {"measurement": "clint (in vitro intrinsic clearance)", "setting": "Microsomal stability", "result": 2.53, "unit": "mL/min/g liver"}
    ]},
    {"molecule": "CCN(CC)Cc1cccc(-c2cc3c(-c4ccc(C(=O)O)c(C(C)C)c4)ccnc3[nH]2)c1OC", "note": "[analogue 27, 4-(2-(3-((Diethylamino)methyl)-2-methoxyphenyl)-1H-pyrrolo[2,3-b]pyridin-4-yl)-2-isopropylbenzoic Acid]", "values": [
      {"measurement": "IC50", "setting": "[1]", "result": 20, "unit": "nM"},
      {"measurement": "fold increase in in vitro kinase activity (PfCLK3)", "setting": "[1]; relative to TCMDC-135051 (1)", "result": 2, "unit": "fold"},
      {"measurement": "fold decrease in parasite growth inhibition", "setting": "P. falciparum 3D7", "result": 15, "unit": "fold"},
      {"measurement": "clint (in vitro intrinsic clearance)", "setting": "Microsomal stability", "result": 1.65, "unit": "mL/min/g liver"}
    ]},
    {"molecule": "COc1ccc(CN2CCCC2)cc1-c1cc2c(-c3ccc(C(=O)O)c(C(C)C)c3)ccnc2[nH]1", "note": "[analogue 8b, 4-(2-{2-Methoxy-5-[(pyrrolidin-1-yl)methyl]phenyl}-1H-pyrrolo[2,3-b]pyridin-4-yl)-2-(propan-2-yl)benzoic Acid]", "values": [
      {"measurement": "fold decrease in parasite growth inhibition", "setting": "P. falciparum 3D7", "result": 2, "unit": "fold"},
      {"measurement": "clint (in vitro intrinsic clearance)", "setting": "Microsomal stability", "result": 1.94, "unit": "mL/min/g liver"}
    ]},
    {"molecule": "CCN(CC)Cc1ccc(O)c(-c2cc3c(-c4ccc(C(=O)O)c(C(C)C)c4)ccnc3[nH]2)c1", "note": "[analogue 19, 4-(2-(5-((Diethylamino)methyl)-2-hydroxyphenyl)-1H-pyrrolo[2,3-b]pyridin-4-yl)-2-isopropylbenzoic Acid]", "values": [
      {"measurement": "IC50", "setting": "[1]", "result": 20, "unit": "nM"},
      {"measurement": "EC50", "setting": "P. falciparum 3D7", "result": 3160, "unit": "nM"},
      {"measurement": "clint (in vitro intrinsic clearance)", "setting": "Microsomal stability", "result": 1.94, "unit": "mL/min/g liver"}
    ]},
    {"molecule": "CCN(CC)Cc1ccc(OC)c(-c2cc3c(-c4ccc(C(=O)O)cc4)ccnc3[nH]2)c1", "note": "[analogue 29, 4-(2-(5-((Diethylamino)methyl)-2-methoxyphenyl)-1H-pyrrolo[2,3-b]pyridin-4-yl)benzoic Acid]", "values": [
      {"measurement": "IC50", "setting": "[1]", "result": 31.6, "unit": "nM"},
      {"measurement": "fold decrease in parasite growth inhibition", "setting": "P. falciparum 3D7", "result": 16, "unit": "fold"},
      {"measurement": "3D7 ED50", "setting": "P. falciparum 3D7", "result": 3272, "unit": "nM"},
      {"measurement": "clint (in vitro intrinsic clearance)", "setting": "Microsomal stability", "result": 11.01, "unit": "mL/min/g liver"}
    ]},
    {"molecule": "CCc1nc(N)nc(N)c1-c1ccc(Cl)cc1", "note": "[pyrimethamine, reference compound]", "values": [
      {"measurement": "reduction in parasitemia (PRR)", "setting": "[2]", "result": "at least 70%"}
    ]},
    {"molecule": "COc1ccc(CN)cc1-c1cc2c(-c3ccc(C(=O)O)c(C(C)C)c3)ccnc2[nH]1", "note": "[analogue 12, 4-{2-[5-(Aminomethyl)-2-methoxyphenyl]-1H-pyrrolo[2,3-b]pyridin-4-yl}-2-(propan-2-yl)benzoic Acid]", "values": [
      {"measurement": "fold less potent in vitro (PfCLK3)", "setting": "[1]; relative to TCMDC-135051 (1)", "result": 2, "unit": "fold"},
      {"measurement": "clint (in vitro intrinsic clearance)", "setting": "Microsomal stability", "result": 2.92, "unit": "mL/min/g liver"}
    ]},
    {"molecule": "CCN(CC)Cc1ccc(OC)c(-c2cc3c(-c4ccc(C(=O)O)c(C)c4)ccnc3[nH]2)c1", "note": "[analogue 28, 4-(2-(5-((Diethylamino)methyl)-2-methoxyphenyl)-1H-pyrrolo[2,3-b]pyridin-4-yl)-2-methylbenzoic Acid]", "values": [
      {"measurement": "fold decrease in parasite growth inhibition", "setting": "P. falciparum 3D7", "result": 6, "unit": "fold"},
      {"measurement": "3D7 ED50", "setting": "P. falciparum 3D7", "result": 1185, "unit": "nM"},
      {"measurement": "clint (in vitro intrinsic clearance)", "setting": "Microsomal stability", "result": 1.33, "unit": "mL/min/g liver"}
    ]},
    {"molecule": "COc1ccc(CN2CCOCC2)cc1-c1cc2c(-c3ccc(C(=O)O)c(C(C)C)c3)ccnc2[nH]1", "note": "[analogue 8c, 4-(2-{2-Methoxy-5-[(morpholin-4-yl)methyl]phenyl}-1H-pyrrolo[2,3-b]pyridin-4-yl)-2-(propan-2-yl)benzoic Acid]", "values": [
      {"measurement": "IC50", "setting": "[1]", "result": 10, "unit": "nM"},
      {"measurement": "clint (in vitro intrinsic clearance)", "setting": "Microsomal stability", "result": 1.60, "unit": "mL/min/g liver"}
    ]},
    {"molecule": "CCN(CC)Cc1cccc(-c2cc3c(-c4ccc(C(=O)O)c(C(C)C)c4)ccnc3[nH]2)c1", "note": "[analogue 23, 4-(2-{3-[(Diethylamino)methyl]phenyl}-1H-pyrrolo[2,3-b]pyridin-4-yl)-2-(propan-2-yl)benzoic Acid]", "values": [
      {"measurement": "fold decrease in parasite growth inhibition", "setting": "P. falciparum 3D7", "result": 1.5, "unit": "fold"},
      {"measurement": "clint (in vitro intrinsic clearance)", "setting": "Microsomal stability", "result": 0.85, "unit": "mL/min/g liver"}
    ]},
    {"molecule": "CCN(CC)Cc1ccc(OC)c(-c2cc3c(-c4cccc(C(C)C)c4)ccnc3[nH]2)c1", "note": "[analogue 31, N-Ethyl-N-(3-(4-(3-isopropylphenyl)-1H-pyrrolo[2,3-b]pyridin-2-yl)-4-methoxybenzyl)ethanamine]", "values": [
      {"measurement": "IC50", "setting": "[1]", "result": 1000, "unit": "nM"},
      {"measurement": "clint (in vitro intrinsic clearance)", "setting": "Microsomal stability", "result": 9.54, "unit": "mL/min/g liver"}
    ]},
    {"molecule": "CCN(CC)Cc1ccc(OC)c(-c2cc3c(-c4ccc(-c5nnn[nH]5)c(C(C)C)c4)ccnc3[nH]2)c1", "note": "[analogue 30, N-Ethyl-N-(3-(4-(3-isopropyl-4-(1H-tetrazol-5-yl)phenyl)-1H-pyrrolo[2,3-b]pyridin-2-yl)-4-methoxybenzyl)ethanamine]", "values": [
      {"measurement": "clint (in vitro intrinsic clearance)", "setting": "Microsomal stability", "result": 2.32, "unit": "mL/min/g liver"}
    ]},
    {"molecule": "CCOC(=O)c1ccc(-c2ccnc3[nH]c(-c4cc(CN(CC)CC)ccc4OC)cc23)cc1C(C)C", "note": "[analogue 9, Ethyl 4-(2-(5-((Diethylamino)methyl)-2-methoxyphenyl)-1H-pyrrolo[2,3-b]pyridin-4-yl)-2-isopropylbenzoate]", "values": [
      {"measurement": "clint (in vitro intrinsic clearance)", "setting": "Microsomal stability", "result": 16.06, "unit": "mL/min/g liver"}
    ]},
    {"molecule": "COc1ccccc1-c1cc2c(-c3ccc(C(=O)O)c(C(C)C)c3)ccnc2[nH]1", "note": "[analogue 15, 4-[2-(2-Methoxyphenyl)-1H-pyrrolo[2,3-b]pyridin-4-yl]-2-(propan-2-yl)benzoic Acid]", "values": [
      {"measurement": "fold decrease in parasite growth inhibition", "setting": "P. falciparum 3D7", "result": 7, "unit": "fold"},
      {"measurement": "clint (in vitro intrinsic clearance)", "setting": "Microsomal stability", "result": 2.54, "unit": "mL/min/g liver"}
    ]}
  ]
}
